Assay [1] concerns the target T1, recombinant METTL3/METTL14 complex (Homo sapiens, UniProt Q86U44).
T1 construct: purchased Active Motif 311970; host or cells: Sf9 cells
Description: METTL3/14 Scintillation Proximity Assay (SPA), RNA methyltransferase activity. The format is biochemical. Particulars: 5.31 nM METTL3/14 complex, 250 nM RNA substrate, 1 μM 3H-SAM, 90 min; for compounds marked * best of the two separated forms. Background: Scintillation proximity formats need no separation of bound from free tracer.

The subject of a further assay is Kasumi-1 cells. Description: Kasumi-1 cellular viability assay (ATP-Lite, 72 h). The format is cell-based. Particulars: Homo sapiens, ATP-Lite luminescence, % viability relative to DMSO. The procedure:
Kasumi-1 cell line was purchased from ATCC (ATCC® CRL2724™). Cells were isolated from the peripheral blood of a child with acute myeloid leukemia (AML FAB M2) (in 2nd relapse after bone marrow transplantation) in 1989. Most cells are round. Kasumi-1 cells are observed to grow individually or in small clumps in suspension.
Kasumi-1 cells are cultured in RPMI-1640 (Gibco A10491-01) containing 10% heat-inactivated and 0.22 μm filtered FBS (Gibco 10270-106) at a density of 3E+5 and 3E+6 viable cell/mL following the certificate of analysis.
(§1) Cellular viability assay: Kasumi-1 cells were plated (50 μL) in 96-well cell culture microplates (PS, F-Bottom black, Cellstar, Greiner 655086) at final concentration of 15000 cells/well. The compounds of the invention were dissolved in DMSO, and a titration curve was generated at 1000× final concentration. Compounds were then diluted 500× in tissue culture medium (RPMI-1640, 10% FBS). Then 50 μl of test compound were added to Kasumi-1 cells in a final DMSO concentration of 0.1%, final volume 100 μl. A gas permeable sealing membrane was applied to the plate to prevent evaporation (Breathe-Easy sealing membrane, Sigma Z380059-1PK) and cells were incubated for 72 h at 37° C., 5% CO2, 80% RH. After 72h of treatment, the plates were taken out of the incubator and left for a few minutes at room temperature. 100 μl of the reconstituted reagent ATP-Lite One Step (Perkin Elmer, 6016739) was added to each well. The plates were shaken for 2 min at 700 rpm and placed in the dark for 10 minutes at room temperature before measurement of luminescence intensity with Envision instrument. The raw data were expressed in RLU. Results were expressed in % of viability relative to DMSO control and an IC50 was calculated based on the concentration-response profile of individual compounds.

A further assay has as its system Caov-3 cells. Put plainly: Caov-3 cellular viability assay (ATP-Lite, 72 h). The format is cell-based. Conditions: Homo sapiens, ATP-Lite luminescence, % viability relative to DMSO. The method, then:
Caov-3 cell line was purchased from ATCC (ATCC® HTB-75™). Cells were isolated from the ovary of a ovarian cancer patient.
Caov-3 cells are cultured in DMEM (ATCC 30-2002) containing 10% heat-inactivated and 0.22 μm filtered FBS (Gibco 10270-106). The cells are seeded at 2.5E+4cell/cm^2 within the recommended subcultivation ratio of 1:3 to 1:6, as stated on the certificate of analysis issues by the provider of the cells.
as §1, with “assay: Caov-3” for “assay: Kasumi-1”, “of 10000” for “of 15000”, “to Caov-3” for “to Kasumi-1”, “After 72 h” for “After 72h”, “6016739) were” for “6016739) was”

A value given as a limit tells only on which side of the number the result lay.

For orientation: IC50 means the concentration that inhibits the measured activity by half.

T1 sequence (Q86U44 whole entry): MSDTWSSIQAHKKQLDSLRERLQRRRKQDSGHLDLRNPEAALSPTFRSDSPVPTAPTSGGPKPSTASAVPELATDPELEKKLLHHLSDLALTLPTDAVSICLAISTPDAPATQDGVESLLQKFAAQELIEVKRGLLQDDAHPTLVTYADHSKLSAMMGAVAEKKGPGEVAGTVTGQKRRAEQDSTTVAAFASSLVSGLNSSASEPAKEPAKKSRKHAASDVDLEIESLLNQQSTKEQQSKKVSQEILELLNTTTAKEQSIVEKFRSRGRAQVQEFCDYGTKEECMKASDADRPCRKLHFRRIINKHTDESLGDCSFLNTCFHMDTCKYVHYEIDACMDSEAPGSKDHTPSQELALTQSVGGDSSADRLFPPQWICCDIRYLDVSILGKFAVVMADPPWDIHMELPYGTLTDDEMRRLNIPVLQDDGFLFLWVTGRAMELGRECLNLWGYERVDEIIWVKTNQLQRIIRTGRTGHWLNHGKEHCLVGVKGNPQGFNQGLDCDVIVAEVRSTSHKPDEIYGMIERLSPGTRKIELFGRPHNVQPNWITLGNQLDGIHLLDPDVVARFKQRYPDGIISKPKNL
T1 sequence (Q9HCE5 whole entry partner): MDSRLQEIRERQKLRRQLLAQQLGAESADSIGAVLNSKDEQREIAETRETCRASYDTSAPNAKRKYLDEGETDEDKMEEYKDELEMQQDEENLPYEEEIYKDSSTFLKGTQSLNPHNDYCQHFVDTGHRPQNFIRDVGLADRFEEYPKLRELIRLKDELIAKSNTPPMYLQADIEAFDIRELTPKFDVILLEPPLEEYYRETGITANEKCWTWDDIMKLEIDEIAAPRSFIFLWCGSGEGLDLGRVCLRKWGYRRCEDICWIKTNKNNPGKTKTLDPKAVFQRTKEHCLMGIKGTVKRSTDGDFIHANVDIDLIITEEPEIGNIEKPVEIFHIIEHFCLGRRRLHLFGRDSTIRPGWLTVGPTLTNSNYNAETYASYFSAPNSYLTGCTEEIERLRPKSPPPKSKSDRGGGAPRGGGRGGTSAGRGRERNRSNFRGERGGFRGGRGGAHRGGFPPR

Take `CC(n1cc(-c2cncc(N3CC4(CC4)C3)n2)nn1)n1ccc(N2CCC[C@@H](NCC3CC3)C2)cc1=O` (single isomer, unassigned) [Compound 247]: the values for the IC50 (in assay [1]; with Kasumi-1 cells; in the assay with Caov-3 cells) were at most 50 nM, at most 500 nM and at most 500 nM, respectively. For the compound `CC(n1cc(-c2cncc(C3CC3)c2)nn1)n1ccc(N2CCC[C@@H](NCC3CC3)C2)cc1=O` (stereo partly drawn) [Compound 320, 4-((R)-3-((cyclopropylmethyl)amino)piperidin-1-yl)-1-(1-(4-(5-cyclopropylpyridin-3-yl)-1H-1,2,3-triazol-1-yl)ethyl)pyridin-2(1H)-one], the IC50 is at most 50 nM in assay [1], at most 500 nM with Kasumi-1 cells and at most 500 nM with Caov-3 cells.

Turning to `COc1cncc(-c2cn(C(C)n3ncc(N4CCC[C@@H](NCC5CCC5)C4)cc3=O)nn2)c1` (stereo partly drawn) [Compound 067, 5-((R)-3-((cyclobutylmethyl)amino)piperidin-1-yl)-2-(1-(4-(5-methoxypyridin-3-yl)-1H-1,2,3-triazol-1-yl)ethyl)pyridazin-3(2H)-one], the IC50 was at most 50 nM in assay [1], 500 to 5000 nM with Kasumi-1 cells and 500 to 5000 nM in the assay with Caov-3 cells. Take `CC(c1ccc(N2CCC[C@@H](NCC3CCC3)C2)cn1)n1cc(-c2cncc(N(C)C)c2)nn1` (single isomer, unassigned) [Compound 143]: the figures for the IC50 (in assay [1]; with Kasumi-1 cells; in the assay on Caov-3 cells) were at most 50 nM, at most 500 nM and at most 500 nM, respectively. Take `COc1cc(-c2cn(Cc3ccc(N4CCC[C@@H](NC5CCCC5)C4)nn3)nn2)c2cn[nH]c2c1` [Compound 023, (R)-N-cyclopentyl-1-(6-((4-(6-methoxy-1H-indazol-4-yl)-1H-1,2,3-triazol-1-yl)methyl)pyridazin-3-yl)piperidin-3-amine]: the 50% inhibitory concentration (IC50) in the assay with Kasumi-1 cells and in the assay with Caov-3 cells was 500 to 5000 nM in each case. On to `COc1cncc(-c2cn(C(C)c3ccc(N4CCC[C@@H](NCC5CCC5)C4)nn3)nn2)c1` (single isomer, unassigned) [Compound 066], for which the IC50 in assay [1] is at most 50 nM; in the assay on Kasumi-1 cells it was 500 to 5000 nM; in the assay on Caov-3 cells, 500 to 5000 nM. For the compound `COc1cc(-c2cn(Cc3ccc(N4CCC[C@@H](N(C)CC5CCC5)C4)nn3)nn2)c2cn[nH]c2c1` [Compound 022, (R)-N-(cyclobutylmethyl)-1-(6-((4-(6-methoxy-1H-indazol-4-yl)-1H-1,2,3-triazol-1-yl)methyl)pyridazin-3-yl)-N-methylpiperidin-3-amine], the IC50 in the assay on Kasumi-1 cells was 500 to 5000 nM; in the assay on Caov-3 cells, over 5000 nM. On to `COc1cc(-c2cn(Cc3ncc(N4CCCC(NCC5CCC5)C4)cn3)nn2)c2cn[nH]c2c1` (centres unmarked) [Compound 043, N-(cyclobutylmethyl)-1-(2-((4-(6-methoxy-1H-indazol-4-yl)-1H-1,2,3-triazol-1-yl)methyl)pyrimidin-5-yl)piperidin-3-amine], for which the IC50 is at most 50 nM in assay [1] and over 5000 nM with Kasumi-1 cells. `COc1cc(-c2cn(Cc3n[nH]c(N4CCC[C@@H](NCC5CCC5)C4)cc3=O)nn2)c2cn[nH]c2c1` [Compound 039, (R)-6-(3-((cyclobutylmethyl)amino)piperidin-1-yl)-3-((4-(6-methoxy-1H-indazol-4-yl)-1H-1,2,3-triazol-1-yl)methyl)pyridazin-4(1H)-one]: the IC50 in assay [1] was at most 50 nM; with Kasumi-1 cells it was over 5000 nM. The matching figures for `COc1cc(-c2cn(Cc3ccc(N4CCCC(NCC5CCC5)C4)c(=O)[nH]3)nn2)c2cn[nH]c2c1` (centres unmarked) [Compound 052, 3-(3-((cyclobutylmethyl)amino)piperidin-1-yl)-6-((4-(6-methoxy-1H-indazol-4-yl)-1H-1,2,3-triazol-1-yl)methyl)pyridin-2(1H)-one]: 50 to 500 nM and over 5000 nM. In the same order, the values of `COc1cc(-c2cn(Cn3cnc(N4CCC[C@@H](NCC5CCC5)C4)cc3=O)nn2)c2cn[nH]c2c1` [Compound 041, (R)-6-(3-((cyclobutylmethyl)amino)piperidin-1-yl)-3-((4-(6-methoxy-1H-indazol-4-yl)-1H-1,2,3-triazol-1-yl)methyl)pyrimidin-4(3H)-one] are 50 to 500 nM and over 5000 nM. Consider `CC(c1ccc(N2CCC[C@@H](NCC3CC3)C2)nn1)c1nnc(-c2cncc(N3CCCC3)n2)s1` (stereo partly drawn) [Compound 353, (3R)—N-(cyclopropylmethyl)-1-(6-(1-(5-(6-(pyrrolidin-1-yl)pyrazin-2-yl)-1,3,4-thiadiazol-2-yl)ethyl)pyridazin-3-yl)piperidin-3-amine], for which the results for the IC50 (in assay [1]; in the assay with Caov-3 cells) were at most 50 nM and at most 500 nM, respectively. On to `COc1cc(-c2cn(Cc3cnc(N4CCCC(NCC5CCC5)C4)nc3)nn2)c2cn[nH]c2c1` (centres unmarked) [Compound 046, N-(cyclobutylmethyl)-1-(5-((4-(6-methoxy-1H-indazol-4-yl)-1H-1,2,3-triazol-1-yl)methyl)pyrimidin-2-yl)piperidin-3-amine], for which the figures for the IC50 (in assay [1]; with Kasumi-1 cells) were 50 to 500 nM and over 5000 nM, respectively. With `COc1cncc(-n2cc(C(C)n3ccc(N4CCC[C@@H](NCC5CCC5)C4)cc3=O)nn2)c1` (mixture of isomers) [Compound 132, 4-((R)-3-((cyclobutylmethyl)amino)piperidin-1-yl)-1-(1-(1-(5-methoxypyridin-3-yl)-1H-1,2,3-triazol-4-yl)ethyl)pyridin-2(1H)-one], the IC50 in assay [1] is at most 50 nM. The same measure, in the same setting: with `COc1cncc(-c2ncc(C(C)(O)c3ccc(N4CCC[C@@H](NCC5CCC5)C4)cn3)s2)c1` (single isomer, unassigned) [Compound 165] the figure was at most 50 nM. Regarding `COc1cncc(-c2cn(C(C)n3ccc(N4CCC[C@@H](NCC5CCC5)C4)cc3=O)nn2)c1C` (stereo partly drawn) [Compound 108, 4-((R)-3-((cyclobutylmethyl)amino)piperidin-1-yl)-1-(1-(4-(5-methoxy-4-methylpyridin-3-yl)-1H-1,2,3-triazol-1-yl)ethyl)pyridin-2(1H)-one], in assay [1], the IC50 was at most 50 nM. Regarding `COc1cncc(-c2cn(Cc3ccc(N4CCCCC(NCC5CCC5)C4)nn3)nn2)c1` (centres unmarked) [Compound 101, N-(cyclobutylmethyl)-1-(6-((4-(5-methoxypyridin-3-yl)-1H-1,2,3-triazol-1-yl)methyl)pyridazin-3-yl)azepan-3-amine], in assay [1], the IC50 is 50 to 500 nM. Take `c1ncc(C2CC2)cc1-c1cn(C2(c3ccc(N4CCC[C@H](NCC5CC5)C4)cn3)COC2)nn1` [Compound 351, (S)—N-(cyclopropylmethyl)-1-(6-(3-(4-(5-cyclopropylpyridin-3-yl)-1H-1,2,3-triazol-1-yl)oxetan-3-yl)pyridin-3-yl)piperidin-3-amine]: the IC50 in assay [1] fell in the range of 50 to 500 nM; in the assay on Kasumi-1 cells, 500 to 5000 nM. In the case of `COc1cc(-c2ncc(C(C)c3ccc(N4CCC[C@@H](NCC5CCC5)C4)cn3)s2)c2cn[nH]c2c1` (single isomer, unassigned) [Compound 167], in assay [1], the IC50 was at most 50 nM. The same measure, in the same setting: with `COc1cncc(-c2cn(Cn3ncc(N4CCC[C@@H](NCC5CCC5)C4)cc3=O)nn2)c1` [Compound 062, (R)-5-(3-((cyclobutylmethyl)amino)piperidin-1-yl)-2-((4-(5-methoxypyridin-3-yl)-1H-1,2,3-triazol-1-yl)methyl)pyridazin-3(2H)-one] the figure was at most 50 nM; with `COc1cncc(-c2cn(C(c3ccc(N4CCC[C@@H](NCC5CCC5)C4)nn3)C(F)(F)F)nn2)c1` (single isomer, unassigned) [Compound 064], at most 50 nM; with `O=C(Nc1cc2ccccc2c(=O)[nH]1)C1(c2ccc(N3CCC[C@@H](NCC4CCC4)C3)cn2)COC1` [Compound 302, (R)-3-(5-(3-((cyclobutylmethyl)amino)piperidin-1-yl)pyridin-2-yl)-N-(1-oxo-1,2-dihydroisoquinolin-3-yl)oxetane-3-carboxamide], at most 50 nM.

These data come from patent US20250002475A1 (EPICS THERAPEUTICS, priority 2023, published 2025).
